From PubChem BioAssay AID1963977 (Molecular Pharmacology Branch, DTP, NCI, 2024)
Values joined by “and” are separate entries in the source; they are usually repeats but may differ in a detail not shown here. Equal values may be shown once.

Test system: 624824-186-R-J3-PDC multicell spheroids, viability
Assay: Anticancer human tumor 624824-186-R-J3-PDC patient-derived colon adenocarcinoma cell line growth inhibition [PI3K]
Details: for viability, T/C: stronger effect = lower value; active means viability on the fitted dose curve at most 10% of control; inactive means the rest
Outline: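 Agents were dosed from a top concentration near clinical Cmax (otherwise 10 microM) in half-log decrements, alone or combined with PI3K inhibitors. The spheroids contain tumor cells plus endothelial (HUVEC) and MSC stroma; viability is measured.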

[1] = curve of first compound, second compound 0.0316 µM
[2] = curve of first compound, second compound 0.1 µM
[3] = curve of first compound, second compound 0.316 µM
[4] = curve of first compound, second compound 1 µM
[5] = curve of first compound, second compound 3.16 µM
[6] = curve of first compound, second compound 10 µM
[7] = second compound 0.0316 µM, first compound 0.0316 µM
[8] = second compound 0.0316 µM, first compound 0.1 µM
[9] = second compound 0.0316 µM, first compound 0.316 µM
[10] = second compound 0.0316 µM, first compound 1 µM
[11] = second compound 0.0316 µM, first compound 3.16 µM
[12] = second compound 0.0316 µM, first compound 10 µM
[13] = second compound 0.1 µM, first compound 0.0316 µM
[14] = second compound 0.1 µM, first compound 0.1 µM
[15] = second compound 0.1 µM, first compound 0.316 µM
[16] = second compound 0.1 µM, first compound 1 µM
[17] = second compound 0.1 µM, first compound 3.16 µM
[18] = second compound 0.1 µM, first compound 10 µM
[19] = second compound 0.316 µM, first compound 0.0316 µM
[20] = second compound 0.316 µM, first compound 0.1 µM
[21] = second compound 0.316 µM, first compound 0.316 µM
[22] = second compound 0.316 µM, first compound 1 µM
[23] = second compound 0.316 µM, first compound 3.16 µM
[24] = second compound 0.316 µM, first compound 10 µM
[25] = second compound 1 µM, first compound 0.0316 µM
[26] = second compound 1 µM, first compound 0.1 µM
[27] = second compound 1 µM, first compound 0.316 µM
[28] = second compound 1 µM, first compound 1 µM
[29] = second compound 1 µM, first compound 3.16 µM
[30] = second compound 1 µM, first compound 10 µM
[31] = second compound 3.16 µM, first compound 0.0316 µM
[32] = second compound 3.16 µM, first compound 0.1 µM
[33] = second compound 3.16 µM, first compound 0.316 µM
[34] = second compound 3.16 µM, first compound 1 µM
[35] = second compound 3.16 µM, first compound 3.16 µM
[36] = second compound 3.16 µM, first compound 10 µM
[37] = second compound 10 µM, first compound 0.0316 µM
[38] = second compound 10 µM, first compound 0.1 µM
[39] = second compound 10 µM, first compound 0.316 µM
[40] = second compound 10 µM, first compound 1 µM
[41] = second compound 10 µM, first compound 3.16 µM
[42] = second compound 10 µM, first compound 10 µM
[43] = curve of first compound, second compound 0.00316 µM
[44] = curve of first compound, second compound 0.01 µM
[45] = second compound 0.00316 µM, first compound 0.0316 µM
[46] = second compound 0.00316 µM, first compound 0.1 µM
[47] = second compound 0.00316 µM, first compound 0.316 µM
[48] = second compound 0.00316 µM, first compound 1 µM
[49] = second compound 0.00316 µM, first compound 3.16 µM
[50] = second compound 0.00316 µM, first compound 10 µM
[51] = second compound 0.01 µM, first compound 0.0316 µM
[52] = second compound 0.01 µM, first compound 0.1 µM
[53] = second compound 0.01 µM, first compound 0.316 µM
[54] = second compound 0.01 µM, first compound 1 µM
[55] = second compound 0.01 µM, first compound 3.16 µM
[56] = second compound 0.01 µM, first compound 10 µM
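Further: spheroids exposed to agents for seven days before luminescence read.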
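Wherever viability, T/C is given: luminescent signal used as a stand-in for spheroid viability; percent viability relative to DMSO vehicle control wells taken as 100%.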

C=CC(=O)N1CCN(c2nc(=O)n(-c3c(C)ccnc3C(C)C)c3nc(-c4c(O)cccc4F)c(F)cc23)C(C)C1 (centres undefined)
inactive: viability, T/C (compound 0.0316 µM) 103% [middle of 4 runs] | viability, T/C (compound 0.1 µM) 94.8% [middle of 4 runs] | viability, T/C (compound 0.316 µM) 103% [middle of 4 runs] | viability, T/C (compound 1 µM) 94.3% [middle of 4 runs] | viability, T/C (compound 3.16 µM) 104% [middle of 4 runs] | viability, T/C (compound 10 µM) 106% and 108% (3×)
> 10 µM: IC50 (curve of compound)

CC1(C)CCC(Nc2ncc(C(F)(F)F)c(-c3c[nH]c4c(P(C)(C)=O)c(C#N)ccc34)n2)CN1 (centres undefined) + CC(Nc1ncnc2nc[nH]c12)c1cc2cccc(Cl)c2c(=O)n1-c1ccccc1
inactive: viability, T/C [7] 99% | viability, T/C [8] 85.7% | viability, T/C [9] 92.2% | viability, T/C [10] 92.5% | viability, T/C [11] 83.8% | viability, T/C [13] 115% | viability, T/C [14] 89% | viability, T/C [15] 89.2% | viability, T/C [16] 99% | viability, T/C [17] 89% | viability, T/C [19] 99.2% | viability, T/C [20] 92.4% | viability, T/C [21] 82.2% | viability, T/C [22] 85.1% | viability, T/C [23] 88.1% | viability, T/C [25] 90.8% | viability, T/C [26] 86.2% | viability, T/C [27] 87.3% | viability, T/C [28] 95.5% | viability, T/C [29] 84.8% | viability, T/C [31] 79.5% | viability, T/C [32] 82.5% | viability, T/C [33] 78% | viability, T/C [34] 80.9% | viability, T/C [35] 82.3% | viability, T/C [37] 66.5% | viability, T/C [38] 63.2% | viability, T/C [39] 63.2% | viability, T/C [40] 60.9% | viability, T/C [41] 57%
5.34 µM: IC50 [3]
3.65 µM: IC50 [6]
5.19 µM: IC50 [4]
5.36 µM: IC50 [2]
active: viability, T/C [12] 3.64% | viability, T/C [18] 3.93% | viability, T/C [24] 4.29% | viability, T/C [30] 3.92% | viability, T/C [36] 4.17% | viability, T/C [42] 3.67%
5.14 µM: IC50 [1]
5.01 µM: IC50 [5]

CC1(C)CCC(CN2CCN(c3ccc(C(=O)NS(=O)(=O)c4ccc(NCC5CCOCC5)c([N+](=O)[O-])c4)c(Oc4cnc5[nH]ccc5c4)c3)CC2)=C(c2ccc(Cl)cc2)C1 + Cc1nc(NC(=O)N2CCCC2C(N)=O)sc1-c1ccnc(C(C)(C)C(F)(F)F)c1
9.43 µM: IC50 [2]
8.59 µM: IC50 [5]
> 10 µM: IC50 [3] | IC50 [4]
9.73 µM: IC50 [1]
inactive: viability, T/C [7] 106% | viability, T/C [8] 99.3% | viability, T/C [9] 106% | viability, T/C [10] 101% | viability, T/C [11] 119% | viability, T/C [12] 48.7% | viability, T/C [13] 103% | viability, T/C [14] 99.9% | viability, T/C [15] 104% | viability, T/C [16] 107% | viability, T/C [17] 118% | viability, T/C [18] 46.9% | viability, T/C [19] 119% | viability, T/C [20] 104% | viability, T/C [21] 107% | viability, T/C [22] 103% | viability, T/C [23] 116% | viability, T/C [24] 54.6% | viability, T/C [25] 96.2% | viability, T/C [26] 93.8% | viability, T/C [27] 106% | viability, T/C [28] 96.9% | viability, T/C [29] 104% | viability, T/C [30] 53.2% | viability, T/C [31] 82.5% | viability, T/C [32] 91.4% | viability, T/C [33] 90.8% | viability, T/C [34] 81.8% | viability, T/C [35] 91.3% | viability, T/C [36] 44.3% | viability, T/C [37] 69.9% | viability, T/C [38] 73.8% | viability, T/C [39] 70.1% | viability, T/C [40] 69.7% | viability, T/C [41] 63.7% | viability, T/C [42] 33.3%
5.3 µM: IC50 [6]

CC(=O)c1c(C)c2cnc(Nc3ccc(N4CCNCC4)cn3)nc2n(C2CCCC2)c1=O
inactive: viability, T/C (compound 0.000316 µM) 101% [middle of 4 runs] | viability, T/C (compound 0.001 µM) 103% [middle of 4 runs] | viability, T/C (compound 0.00316 µM) 104% [middle of 4 runs] | viability, T/C (compound 0.01 µM) 98.7% [middle of 4 runs] | viability, T/C (compound 0.0316 µM) 108% [middle of 4 runs] | viability, T/C (compound 0.1 µM) 105% [middle of 4 runs]
> 0.1 µM: IC50 (curve of compound)

CC(Nc1ccc2c(c1)OCCn1cc(N3C(=O)OCC3C(F)F)nc1-2)C(N)=O (centres undefined)
inactive: viability, T/C (compound 0.00316 µM) 101% [middle of 7 runs] | viability, T/C (compound 0.01 µM) 103% [middle of 7 runs] | viability, T/C (compound 0.0316 µM) 108% [middle of 7 runs] | viability, T/C (compound 0.1 µM) 109% [middle of 7 runs] | viability, T/C (compound 0.316 µM) 100% [middle of 7 runs] | viability, T/C (compound 1 µM) 88.5% [middle of 7 runs]
> 1 µM: IC50 (compound alone, run of 04/24/2023)

CC1(C)CCC(CN2CCN(c3ccc(C(=O)NS(=O)(=O)c4ccc(NCC5CCOCC5)c([N+](=O)[O-])c4)c(Oc4cnc5[nH]ccc5c4)c3)CC2)=C(c2ccc(Cl)cc2)C1
inactive: viability, T/C (compound 0.0316 µM) 101% [middle of 4 runs] | viability, T/C (compound 0.1 µM) 99.1% [middle of 4 runs] | viability, T/C (compound 0.316 µM) 103% (2×) and 102% and 107% | viability, T/C (compound 1 µM) 105% [middle of 4 runs] | viability, T/C (compound 3.16 µM) 110% [middle of 4 runs]

C=CC(=O)N1CCN(c2nc(=O)n(-c3c(C)ccnc3C(C)C)c3nc(-c4c(O)cccc4F)c(F)cc23)C(C)C1 (centres undefined) + COc1c(OCCCN2CCOCC2)ccc2c3n(c(=NC(=O)c4cnc(N)nc4)nc12)CCN3
inactive: viability, T/C [45] 119% | viability, T/C [46] 100% | viability, T/C [47] 112% | viability, T/C [48] 97% | viability, T/C [49] 100% | viability, T/C [50] 99.1% | viability, T/C [51] 93.1% | viability, T/C [52] 96.6% | viability, T/C [53] 104% | viability, T/C [54] 108% | viability, T/C [55] 97.7% | viability, T/C [56] 98.8% | viability, T/C [7] 99.8% | viability, T/C [8] 101% | viability, T/C [9] 92.9% | viability, T/C [10] 99% | viability, T/C [11] 89.7% | viability, T/C [12] 92.7% | viability, T/C [13] 78.1% | viability, T/C [14] 79.3% | viability, T/C [15] 78.7% | viability, T/C [16] 80.6% | viability, T/C [17] 80.2% | viability, T/C [18] 72.7% | viability, T/C [19] 48.7% | viability, T/C [20] 53.1% | viability, T/C [21] 53.2% | viability, T/C [22] 46.7% | viability, T/C [23] 51.8% | viability, T/C [24] 41.2% | viability, T/C [25] 28.9% | viability, T/C [26] 30.5% | viability, T/C [27] 29% | viability, T/C [28] 25.6% | viability, T/C [29] 26.3% | viability, T/C [30] 33.9%
3.43 µM: IC50 [3]
< 0.0316 µM: IC50 [4]
> 10 µM: IC50 [43] | IC50 [44] | IC50 [1] | IC50 [2]

Cn1nccc1Nc1nccc(-c2ccn(C(CO)c3ccc(Cl)c(F)c3)c(=O)c2)n1 (centres undefined) + CC(Nc1ccc2c(c1)OCCn1cc(N3C(=O)OCC3C(F)F)nc1-2)C(N)=O
1.27 µM: IC50 [2]
0.341 µM: IC50 [4]
0.628 µM: IC50 [3]
inactive: viability, T/C [45] 104% | viability, T/C [46] 91.1% | viability, T/C [47] 85% | viability, T/C [48] 75.9% | viability, T/C [49] 58.8% | viability, T/C [50] 48.1% | viability, T/C [51] 93.9% | viability, T/C [52] 93% | viability, T/C [53] 90% | viability, T/C [54] 65.4% | viability, T/C [55] 54.9% | viability, T/C [56] 43.9% | viability, T/C [7] 97.5% | viability, T/C [8] 107% | viability, T/C [9] 80.7% | viability, T/C [10] 68.2% | viability, T/C [11] 46.2% | viability, T/C [12] 37.2% | viability, T/C [13] 102% | viability, T/C [14] 95% | viability, T/C [15] 80.6% | viability, T/C [16] 52.2% | viability, T/C [17] 36.4% | viability, T/C [18] 24.8% | viability, T/C [19] 105% | viability, T/C [20] 95% | viability, T/C [21] 76.6% | viability, T/C [22] 31.7% | viability, T/C [23] 20.2% | viability, T/C [24] 17.4% | viability, T/C [25] 84.1% | viability, T/C [26] 81.1% | viability, T/C [27] 51.9% | viability, T/C [28] 20.5% | viability, T/C [29] 15.1% | viability, T/C [30] 15.3%
8.24 µM: IC50 [43]
4.07 µM: IC50 [44]
2.58 µM: IC50 [1]
